This is an account of results in patent publication US20020055488A1, “Prevention and treatment of streptococcal and staphylococcal infection” (priority 2000, published 2002).

The subject of experiment [1] is Group A streptococcus (GAS). Nature of the experiment: GAS pharyngeal colonization in mice after intranasal pretreatment with hyaluronic acid. In kind it is in vivo, Streptococcus pyogenes. The conditions noted are these: intranasal 20 μl of 1 mg/ml, 5 hours prior to GAS inoculation, compared to PBS or alginic acid pretreated, 3 days. The protocol:
For pharyngeal colonization experiments, 4 to 6 week-old female mice were anesthetized by inhalation of methoxyflurane, then inoculated intranasally with approximately 5×10^6 CFU of GAS in 20 μl phosphate-buffered saline, pH 7.4. Throat swabs were collected from anesthetized mice daily and were plated on Todd-Hewitt-blood agar containing streptomycin 500 μg/ml to inhibit growth of normal flora. For some experiments, the bacterial inoculum was suspended in phosphate-buffered saline containing 50μg of mAb, either KM81, a rat anti-mouse CD44 mAb (Miyake, K. 1990, J. Exp. Med. 171:477-488), or 4H1, an isotype-matched control monoclonal antibody directed to Pseudomonas aeruginosa lipopolysaccharide (donated by Michael Preston, Brigham and Women's Hospital, Boston, Mass.). Both antibodies were purified by protein G affinity chromatography (GammaBind Plus Sepharose, Amersham Pharmacia Biotech, Piscataway, N.J.) prior to use.
Differences in attachment of GAS to keratinocytes were evaluated Using the Mann Whitney U test (Instat version 1.12, GraphPad Software, Inc. San Diego, Calif.). Repeated measures logistic regression was used to test for the effect of anti-CD44 mAb or erogenous hyaluronic acid treatment on the proportion of mice with positive throat cultures over three days of observation (Zeger, S. L. et al. 1986, Biometrics. 42:121-130). […]

In experiment [2] the test system is Group B Streptococcus (GBS, strain 515). Put plainly: Bacterial binding to human keratinocyte monolayers after pre-incubation, GBS. The format is cell-based. The note with it: 10 bacteria per keratinocyte, 1 hour, alginate control. On the procedure:
(§1) Keratinocyte monolayers were pre-incubated with alginate (AL, solid bars) or hyaluronic cid (HA, hatched bars) prior to surface inoculation with either Group A Streptococcus (GAS, strain 950771), Group B Streptococcus (GBS, strain 515), Streptococcus pneumoniae (S. pneumo, type 6), or Staphylococcus aureus (S. aureus, type 8) at a multiplicity of infection of 10 bacteria per keratinocyte for 1 hour.

Experiment [3] has as its system Staphylococcus aureus (S. aureus, type 8). Put plainly: Bacterial binding to human keratinocyte monolayers after pre-incubation, S. aureus. In kind it is cell-based. The note with it: 10 bacteria per keratinocyte, 1 hour, alginate control. On the procedure:
as §1

Experiment [4] has as its system Group A streptococcus (GAS). Nature of the experiment: GAS attachment to murine keratinocyte cell line PAM2.12 with exogenous hyaluronic acid. In kind it is cell-based, Streptococcus pyogenes. The conditions noted are these: for inhibition of GAS attachment to PAM2.12 keratinocytes: polysaccharide added together with GAS, 45 minutes incubation. The protocol:
For bacterial adherence assays, keratinocytes were seeded at 10^5 cells per well in collagen-coated tissue culture wells (Nalge Nunc International, Naperville, Ill.), incubated for 3 days at 34° C. in 8% CO2, washed, and overlaid with medium containing 10^6 CFU of GAS per well. After incubation for 1 hour at 34° C. in 8% CO2 the keratinocyte monolayers were washed twice to remove nonadherent bacteria, then the number of cell-associated bacteria was determined by quantitative culture after releasing the keratinocytes with trypsin and lysing them in sterile water, experiments testing the effects of exogenous hyaluronic acid on GAS adherence were performed using the mouse keratinocyte cell line, PAM 2.12 (Song, I. S. 2000, Exp. Dermatol. 9:42-52). Cells were seeded in collagen-coated tissue culture wells at 10^5 cells per well, cultured for 3 days at 37° C. in 5% CO2, then inoculated with 10^6 CFU of GAS per well in medium containing exogenous hyaluronic acid (from rooster comb, Sigma Chemicals, St. Louis, Mo.), no inhibitor, or a control polysaccharide, alginic acid, a high-molecular-weight polymer of mannuronic acid and guluronic acid (Protonal Durvillea Alginate, Pronova. Biopolymer, Inc., Portsmouth, N.H.). Cells were incubated for 45 minutes at 37° C. in 5% CO2, then processed for enumeration of adherent bacteria as described above. In experiments to test whether exogenous hyaluronic acid could promote dissociation of GAS attached to keratinocytes, GAS were allowed to attach to keratinocytes in the absence of inhibitor; […], no inhibitor, or alginic acid. After 45 minutes of incubation, the number of adherent bacteria was enumerated as described above.
To investigate the specificity of the interaction between the GAS capsule and CD44 on epithelial cells, the ability of exogenous hyaluronic acid to compete with GAS for binding to murine keratinocytes was examined. Addition of exogenous hyaluronic acid inhibited GAS attachment to the murine keratinocyte cell line PAM2.12 by >95% (P<0.03, FIG. 5). Alginic acid, another high molecular weight acidic polysaccharide, had no effect, supporting the hypothesis that adherence depends on a specific interaction between the GAS hyaluronic acid capsule and CD44.

Experiment [5] concerns Streptococcus pneumoniae (S. pneumo, type 6). Put plainly: Bacterial binding to human keratinocyte monolayers after pre-incubation, S. pneumoniae. In kind it is cell-based. The note with it: 10 bacteria per keratinocyte, 1 hour, alginate control. The protocol:
as §1

For experiment [6], the system named is Group A Streptococcus (GAS, strain 950771). Put plainly: Bacterial binding to human keratinocyte monolayers after pre-incubation, GAS. The format is cell-based, Streptococcus pyogenes. The note with it: 10 bacteria per keratinocyte, 1 hour, alginate control. On the procedure: as §1

Consider hyaluronic acid, for which, in experiment [1], the “reduction of GAS pharyngeal colonization (positive throat cultures)” value is listed as 60 to 80%. Also, the “inhibition of binding of GBS to human keratinocytes” value in experiment [2] was “more than 80%”. The “inhibition of binding of S. aureus to human keratinocytes” value in experiment [3] is recorded as “more than 80%”. The “reduction of GAS attachment to keratinocytes” value in experiment [4] (addition of hyaluronic acid delayed for 2 hours) is given as 70-80%. In experiment [4] (hyaluronic acid added up to 45 minutes after adding GAS), the “reduction in bacterial attachment to keratinocytes” value is > 90%. In experiment [4], the “inhibition of GAS attachment to PAM2.12 keratinocytes” value is listed as > 95%. For the same substance, the “inhibition of binding of S. pneumoniae to human keratinocytes” value in experiment [5] is recorded as “more than 80%”. In addition, the “inhibition of binding of GAS to human keratinocytes” value in experiment [6] was “more than 80%”.
In the case of alginic acid, in experiment [4], the “inhibition of GAS attachment to PAM2.12 keratinocytes” value is recorded as “had no effect”.
